Test results as given in patent US20250034185A1 (priority 2021, published 2025).

Test system: plasma enzymes
Settings: Sprague Dawley, rat
Wherever P5P formed is given: test concentration or dose not given here.

| SMILES | P5P formed | relative P5P formed |
| --- | --- | --- |
| Cc1ncc(COP(=O)(N[C@@H](C)C(=O)OC(C)C)Oc2ccccc2)c(CN)c1O (stereo partly drawn) [Compound 14, (2S)-Isopropyl 2-(((4-(aminomethyl)-5-hydroxy-6-methylpyridin-3-yl)methoxy)(phenoxy)phosphorylamino)propanoate] | 0 µM | 0.0% |
| CCC(CC)COC(=O)[C@H](C)NP(=O)(OCc1cnc(C)c(O)c1CN)Oc1ccccc1 (stereo partly drawn) [Compound 14i, (2S)-2-Ethylbutyl 2-(((4-(aminomethyl)-5-hydroxy-6-methylpyridin-3-yl)methoxy)(phenoxy)phosphorylamino)propanoate] | 0.17 µM | 4.0% |
| Cc1ncc(COP(=O)(NCC(=O)OC(C)C)Oc2ccccc2)c(CN)c1O (stereo not drawn) [Compound 14ii, Isopropyl 2-(((4-(aminomethyl)-5-hydroxy-6-methylpyridin-3-yl)methoxy)(phenoxy)phosphorylamino)acetate] | 0 µM | 0.0% |
| Cc1ncc(COP(=O)(N[C@@H](C)C(=O)OCc2ccccc2)Oc2ccccc2)c(CN)c1O (stereo partly drawn) [Compound 14iii, (2S)-Benzyl 2-(((4-(aminomethyl)-5-hydroxy-6-methylpyridin-3-yl)methoxy)(phenoxy)phosphorylamino)propanoate] | 0.7 µM | 6.7% |
| Cc1ncc(COP(=O)(N[C@@H](C)C(=O)OC(C)C)Oc2cccc3ccccc23)c(CN)c1O (stereo partly drawn) [Compound 14ix, (2S)-Isopropyl 2-(((4-(aminomethyl)-5-hydroxy-6-methylpyridin-3-yl)methoxy)(naphthalen-1-yloxy)phosphorylamino)propanoate] | 0.4 µM | 6.3% |
| Cc1ncc(COP(=O)(N[C@@H](C)C(=O)OC(C)C)Oc2ccc(Cl)cc2)c(CN)c1O (stereo partly drawn) [Compound 14v, (2S)-Isopropyl 2-(((4-(aminomethyl)-5-hydroxy-6-methylpyridin-3-yl)methoxy)(4-chlorophenoxy)phosphorylamino)propanoate] | 0.3 µM | 11.1% |
| Cc1ccc(OC(=O)[C@H](C)NP(=O)(OCc2cnc(C)c(O)c2CN)Oc2ccccc2)cc1 (stereo partly drawn) [Compound 14vii, (2S)-p-Tolyl 2-(((4-(aminomethyl)-5-hydroxy-6-methylpyridin-3-yl)methoxy)(phenoxy)phosphorylamino)propanoate] | 0.5 µM | 12.2% |
| [2H]C([2H])([2H])C(OC(=O)[C@H](C)NP(=O)(OCc1cnc(C)c(O)c1CN)Oc1ccccc1)C([2H])([2H])[2H] (stereo partly drawn) [Compound 14viii] | 0.3 µM | 17.6% |
| Cc1ncc(COP(=O)(N[C@@H](C)C(=O)OC2CCCC2)Oc2ccccc2)c(CN)c1O (stereo partly drawn) [Compound 14x, (2S)-Cyclopentyl 2-(((4-(aminomethyl)-5-hydroxy-6-methylpyridin-3-yl)methoxy)(phenoxy)phosphorylamino)propanoate] | 0.3 µM | 11.1% |
| Cc1ncc(COP(=O)(N[C@@H](C)C(=O)OC(C)C)Oc2ccc(OC(F)(F)F)cc2)c(CN)c1O (stereo partly drawn) [Compound 14xi, (2S)-Isopropyl 2-(((4-(aminomethyl)-5-hydroxy-6-methylpyridin-3-yl)methoxy)(4-(trifluoromethoxy)phenoxy)phosphorylamino)propanoate] | 0.3 µM | 17.6% |
| Cc1ncc(COP(=O)(N[C@@H](C)C(=O)Oc2ccc3c(c2)CCCC3)Oc2ccccc2)c(CN)c1O (stereo partly drawn) [Compound 14xii, (2S)-5,6,7,8-Tetrahydronaphthalen-2-yl 2-(((4-(aminomethyl)-5-hydroxy-6-methylpyridin-3-yl)methoxy)(phenoxy)phosphorylamino)propanoate] | 0.2 µM | 5.3% |
| [2H]C([2H])(NP(=O)(OCc1cnc(C)c(O)c1CN)Oc1ccccc1)C(=O)OC(C([2H])([2H])[2H])C([2H])([2H])[2H] (stereo not drawn) [Compound 14xiii] | 0.3 µM | 17.6% |
| Cc1ncc(COP(=O)(N[C@@H](Cc2ccc(OCc3ccccc3)cc2)C(=O)OC(C)C)Oc2ccccc2)c(CN)c1O (stereo partly drawn) [Compound 14xiv, (2S)-Isopropyl 2-(((4-(aminomethyl)-5-hydroxy-6-methylpyridin-3-yl)methoxy)(phenoxy)phosphorylamino)-3-(4-(benzyloxy)phenyl)propanoate] | 0.3 µM | 8.3% |
| Cc1ncc(COP(=O)(N[C@@H](C)C(=O)OC2CCN(C)CC2)Oc2ccccc2)c(CN)c1O (stereo partly drawn) [Compound 14xv, (2S)-1-Methylpiperidin-4-yl 2-(((4-(aminomethyl)-5-hydroxy-6-methylpyridin-3-yl)methoxy)(phenoxy)phosphorylamino)propanoate] | 0.3 µM | 10.3% |
| Cc1ccc(OP(=O)(N[C@@H](C)C(=O)OC(C)C)OCc2cnc(C)c(O)c2CN)cc1 (stereo partly drawn) [Compound 14xvi, (2S)-Isopropyl 2-(((4-(aminomethyl)-5-hydroxy-6-methylpyridin-3-yl)methoxy)(p-tolyloxy)phosphorylamino)propanoate] | 0.3 µM | 10.3% |
| Cc1ncc(COP(=O)(N[C@@H](C)C(=O)Oc2ccc(Cl)cc2)Oc2ccccc2)c(CN)c1O (stereo partly drawn) [Compound 14xvii, (2S)-4-Chlorophenyl 2-(((4-(aminomethyl)-5-hydroxy-6-methylpyridin-3-yl)methoxy)(phenoxy)phosphorylamino)propanoate] | 6.6 µM | 194.1% |
| Cc1ncc(COP(=O)(N[C@@H](C)C(=O)OC(C)C)Oc2ccc(Br)cc2F)c(CN)c1O (stereo partly drawn) [Compound 14xviii, (2S)-Isopropyl 2-(((4-(aminomethyl)-5-hydroxy-6-methylpyridin-3-yl)methoxy)(4-bromo-2-fluorophenoxy)phosphorylamino)propanoate] | 2.4 µM | 96.0% |
| Cc1ncc(CO[P@@](=O)(N[C@@H](C)C(=O)OC(C)C)Oc2ccccc2)c(CO)c1O [Compound 15i, (S)-Isopropyl 2-((S)-((5-hydroxy-4-(hydroxymethyl)-6-methylpyridin-3-yl)methoxy)(phenoxy)phosphorylamino)propanoate] | 0.15 µM | 2.6% |
| Cc1ncc(COP(=O)(N[C@@H](C)C(=O)OC(C)C)Oc2ccccc2)c(CO)c1O (stereo partly drawn) [Compound 15ii, (S)-Isopropyl 2-((R)-((5-hydroxy-4-(hydroxymethyl)-6-methylpyridin-3-yl)methoxy)(phenoxy)phosphorylamino)propanoate] | 0 µM | 0.0% |
| Cc1ncc(COP(=O)(N[C@@H](C)C(=O)OC(C)C)Oc2ccc(Cl)c(Cl)c2)c(CO)c1O (stereo partly drawn) [Compound 15iii, (2S)-Isopropyl 2-((3,4-dichlorophenoxy)((5-hydroxy-4-(hydroxymethyl)-6-methylpyridin-3-yl)methoxy)phosphorylamino)propanoate] | 0.4 µM | 7.4% |
| Cc1ncc(COP(=O)(N[C@@H](C)C(=O)Oc2ccc3ccccc3c2)Oc2ccccc2)c(CO)c1O (stereo partly drawn) [Compound 15iv, (2S)-Naphthalen-2-yl 2-(((5-hydroxy-4-(hydroxymethyl)-6-methylpyridin-3-yl)methoxy)(phenoxy)phosphorylamino)propanoate] | 0.65 µM | 6.2% |
